What was measured:
rats = conditions: cited from earlier work
dogs = conditions: repeated oral administration in dogs; cited from earlier work
[1] = tested on: spontaneous dilated cardiomyopathy (J2N-k) hamster model; assay: Long-term (36 weeks) administration in J2N-k hamster model: cardiac function, survival rate; assay type: in vivo
Method: ONO-1301 and (K) candesartan, which is ARB, were each individually orally administered to a δ-glycan-deficient spontaneous dilated cardiomyopathy (J2N-k) hamster model twice daily repeatedly for 36 weeks, after the onset of pathological condition (20 weeks old); and changes in cardiac function and survival rates in long-term administration were compared for evaluation. Specifically, echocardiographic measurement was performed after the onset of pathological condition (20 weeks old); the animals were grouped evenly based on the ejection fractions (EF values) and the body weights (Table 15), and each test substance was individually administered for 36 weeks.
The test was performed in the same manner as described in the section “1. Investigation of effects in spontaneous dilated cardiomyopathy (J2N-k) hamster model” above.
ONO-1301 was administered at 3 mg/kg twice per day. Candesartan was administered at 3 mg/kg once per day, and only vehicle was administered at the second administration. To the control group, vehicle (0.5% CMC-Na) was administered twice daily.

[2] = Canine rapid pacing severe dilated cardiomyopathy model, long-term repeated oral administration; assay type: in vivo; conditions: dog, in vivo; after oral administration, 3 mg/kg
Method: (§1) A sham operation was performed for a Sham group. After the pacemaker was operated, and it was confirmed in an electrocardiogram (Lead II) that the heartbeat was linked to the pulse rate, the incision site was sutured.
(§2) The animals were grouped evenly based on the cardiac function (EF) 4 weeks after rapid pacing. […] An empty capsule was administered to the control group in the same manner.
(§3) Electrocardiography (Lead II) was performed once a week during the period of induction of pathological condition (4 weeks). After administration of the test substance, electrocardiography was performed at the time of echocardiographic measurement. Examination with a stethoscope was performed every day. Specifically, the number of beats per 10 seconds was measured every day, and if an abnormality was found in examination with a stethoscope, an electrocardiogram was measured to confirm the presence or absence of pacing errors.
(§4) The general condition of the animals (death, posture, activity, color of gums, the presence or absence of ascites, feces, etc.) and food intake were observed every day (at the time of administration in the morning and in the evening, i.e., twice). […] The survival rate was observed twice daily for 6 months from the day of the start of administration of the test substance. Moribund animals were determined to be dead when they had no reaction in at least one item of examination of pinna, auditory, and nociception reflexes.
(§5) The body weight was measured on the date of implantation of the pacemaker, the date of operation of the pacemaker, and every week thereafter.
(§6) Echocardiographic measurement was performed before the preparation of the model (Pre); Week 4 (at the time of grouping) (before administration of the test substance); and 2 weeks, 4 weeks (1 month), 2 months, 3 months, 4 months, 5 months, and 6 months (at the time of dissection) after the start of administration of the test substance, as measurement points.
(§7) The echocardiographic measurement was performed without anesthesia, using an ultrasound imaging apparatus. A sector probe (10 MHz) was placed on the chest, and the diastolic left ventricular internal dimension (LVIDd), the systolic left ventricular internal dimension (LVIDs), the interventricular septal thickness at end-diastole (IVSTd), and the left ventricular posterior wall thickness in end diastole (LVPWd) were measured at M-mode. Moreover, the ejection fraction […] and the fractional shortening […] were calculated.

[3] = tested on: canine rapid pacing severe dilated cardiomyopathy model; assay: as above; assay type: in vivo
Method: as §1, §2, §3, §4, §5, §6, §7

[4] = tested on: rat coronary artery complete ischemia model; assay: Model of ischemia (MI) by rat coronary artery complete ligation (Tests 1 and 2): echocardiography, body weight; conditions: for Action on left ventricular systolic function: MI Test 1, 28-day repeated oral administration b.i.d., NOAEL-based doses
[5] = tested on: spontaneous dilated cardiomyopathy (J2N-k) hamster model; assay: Spontaneous dilated cardiomyopathy (J2N-k) hamster model, 8-week administration from 20 weeks of age (Tests 1-3): echocardiography, body weight
Method in brief: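 Male J2N-k δ-glycan-deficient hamsters (delivered at 18 weeks; 2-week acclimation) were dosed by oral gavage twice daily for 8 weeks in 0.5% CMC-Na (G in distilled water; 5 mL/kg) at human-equivalent doses, e.g. cilostazol 1.7 mg/kg. Camostat PLGA preparation was given 10 mg/kg s.c. every 4 weeks. Echocardiographic EF/FS changes from baseline were assessed at 4 and 8 weeks versus vehicle.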

[6] = tested on: lauric acid-induced rat hind limb circulatory disorder model; conditions: oral, 7 consecutive days; cited from earlier work
[7] = MI Test 1, NOAEL doses, 1 Day (grouping), mean ± S.D.
[8] = MI Test 1, NOAEL doses, 7 Day, mean ± S.D.
[9] = MI Test 1, NOAEL doses, 14 Day, mean ± S.D.
[10] = MI Test 1, NOAEL doses, 21 Day, mean ± S.D.
[11] = MI Test 1, NOAEL doses, 29 Day, mean ± S.D.
[12] = Test 1, p.o. b.i.d., NOAEL-based dose
[13] = Test 2, p.o. b.i.d., NOAEL-based dose

Compound: O=C(O)COc1cccc2c1CCC=C2CCO/N=C(\c1ccccc1)c1cccnc1 [Compound A, (E)-[5-[2-[1-phenyl-1-(3-pyridyl)methylideneaminooxy]ethyl]-7,8-dihydronaphthalen-1-yloxy]acetic acid]
- No-observed-adverse-effect level (rats; repeated oral administration in rats): 3 mg/kg
- No-observed-adverse-effect level (dogs): 3 mg/kg
- Effect in long-term administration compared with candesartan [1]: effect superior to that of candesartan
- EF compared with control group ([1]; 3.0 mg/kg): significant improvement effect
- FS% compared with control group ([1]; 3.0 mg/kg): Significantly higher values
- Tmax [2]: 1.5 to 2.5 h
- Number of animals alive 26 weeks after start of administration ([3]; 3 mg/kg p.o. twice daily): 1/6
- Time after start of administration at which death was first observed ([3]; 3 mg/kg p.o. twice daily): 44 days
- Survival rate (Kaplan-Meier curve) compared with control ([3]; 3 mg/kg p.o. twice daily, 26 weeks): significant prolonging effect on the survival rate
- Amount of change (Δ) in EF compared with control ([3]; 2 weeks and 4 weeks after start of administration): significantly higher
- Body weight gain compared with control ([3]; 6 weeks and 8 weeks after start of administration): suppressed
- Effect on heart rate in echocardiography at Tmax ([3]; oral 3 mg/kg): no effect on the heart rate
- Action on left ventricular systolic function [4]: suppression action on the deterioration of left ventricular systolic function
- Body weight [4, 7]: 231.4 ± 4.9 g
- % FS: value of change compared with the value on Day 1 [4, 8]: 1%
- Body weight [4, 8]: 237.8 ± 15.0 g
- EF: value of change compared with the value on Day 1 [4, 8]: 1%
- % FS: value of change compared with the value on Day 1 [4, 9]: 0%
- Body weight [4, 9]: 257.1 ± 20.7 g
- EF: value of change compared with the value on Day 1 [4, 9]: 0%
- Body weight [4, 10]: 277.1 ± 17.3 g
- % FS: value of change compared with the value on Day 1 [4, 11]: -3%
- Body weight [4, 11]: 293.6 ± 18.9 g
- EF: value of change compared with the value on Day 1 [4, 11]: -6%
- Body weight 0 W ([5]; Test 1, at grouping): 112.5 g
- LVIDd 4 W ([5]; Test 1, p.o. b.i.d.): 6.9 mm
- LVIDd 8 W ([5]; Test 1, p.o. b.i.d.): 7.6 mm
- LVIDs 4 W ([5]; Test 1, p.o. b.i.d.): 5.6 mm
- LVIDs 8 W ([5]; Test 1, p.o. b.i.d.): 6.2 mm
- Body weight 4 W [5, 12]: 120.2 g
- Body weight 8 W [5, 12]: 120.6 g

Compound: CC#CCC(C)[C@H](O)/C=C/[C@@H]1[C@H]2c3cccc(CCCC(=O)O)c3O[C@H]2C[C@H]1O (mixture of isomers) [Compound F, Beraprost sodium]
- No-observed-effect level (rats; rats, 12 months): 0.01 mg/kg/day
- Dose at which toxic findings were observed (rats; repeated administration in rats, duration per compound): ≥ 0.1 mg/kg/day
- Action on left ventricular systolic function [4]: suppression action on the deterioration of left ventricular systolic function
- Body weight [4, 7]: 230.4 ± 3.3 g
- % FS: value of change compared with the value on Day 1 [4, 8]: 0%
- Body weight [4, 8]: 232.3 ± 10.0 g
- EF: value of change compared with the value on Day 1 [4, 8]: 0%
- % FS: value of change compared with the value on Day 1 [4, 9]: -2%
- Body weight [4, 9]: 252.6 ± 9.8 g
- EF: value of change compared with the value on Day 1 [4, 9]: -3%
- Body weight [4, 10]: 272.9 ± 7.7 g
- % FS: value of change compared with the value on Day 1 [4, 11]: -3%
- Body weight (g) [4, 11]: 295.4 ± 8.6 (7) g
- EF: value of change compared with the value on Day 1 [4, 11]: -6%
- Body weight change compared with control group ([4]; MI Test 1, until Day 29): Significant body weight gain suppression
- Body weight 0 W ([5]; Test 2, at grouping): 119.9 g
- LVIDd 4 W ([5]; Test 2, p.o. b.i.d.): 7.1 mm
- LVIDd 8 W ([5]; Test 2, p.o. b.i.d.): 7.5 mm
- LVIDs 4 W ([5]; Test 2, p.o. b.i.d.): 5.9 mm
- LVIDs 8 W ([5]; Test 2, p.o. b.i.d.): 6.3 mm
- % FS 4 W [5, 13]: significantly higher
- % FS value of change at 4 W compared with 0 W [5, 13]: significantly higher
- Body weight 1 W [5, 13]: 120.8 g
- Body weight 2 W [5, 13]: 122.7 g
- Body weight 3 W [5, 13]: 124.9 g
- Body weight 4 W [5, 13]: 127.1 g
- Body weight 5 W [5, 13]: 128.2 g
- Body weight 6 W [5, 13]: 129.6 g
- Body weight 7 W [5, 13]: 129.9 g
- Body weight 8 W [5, 13]: 130.0 g
- EF 4 W [5, 13]: significantly higher
- Dose significantly ameliorating the disorder of the hind limbs [6]: 300 µg/kg/day

From US20200360391A1, “Medicinal Composition for Treating Intractable Heart Disease” (Osaka University, priority 2016, published 2020)
